The record followed here is patent US20040223967A1, “Blood coagulation factor-activating protein and antibody thereto” (RIKEN, priority 2000, published 2004).

Data set [1] deals with T1, F-IX-activating enzyme (Homo sapiens, UniProt P08246).
T1 construct: 1-219; from tissue; host or cells: erythrocyte membranes (crude surfactant extract)
T1 sequence (P08246 30-248): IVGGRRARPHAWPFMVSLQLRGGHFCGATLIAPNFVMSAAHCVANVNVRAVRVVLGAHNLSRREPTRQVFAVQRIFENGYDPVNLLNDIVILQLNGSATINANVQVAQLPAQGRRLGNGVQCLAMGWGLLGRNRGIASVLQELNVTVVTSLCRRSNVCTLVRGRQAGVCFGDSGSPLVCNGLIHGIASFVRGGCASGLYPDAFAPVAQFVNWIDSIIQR
As to the kind of experiment: Assay of inhibitor effect: fluorogenic substrate Suc(OMe)-Ala-Ala-Pro-Val-MCA with crude enzyme extract. Type of data set: biochemical. On the procedure:
Relative activity of the enzyme is a ratio of the fluorogenic intensity of the mixture of a fluorogenic synthetic substrate (Suc(OME)-Ala-Ala-Pro-Val-MCA), specific for elastase, the enzyme and inhibitor or antibody to that of the mixture of the fluorogenic substrate and enzyme not containing inhibitor or antibody (control).
To measure the fluorescence intensity of a mixture of inhibitor and the enzyme or elastase, 3 μl of 2 mM fluorogenic synthetic substrate, 2 μl of the enzyme or elastase (concentration: 0.5 mU) and inhibitor or antibody were added to 190 μl HEPES buffer. After incubating the mixture for 30 min at 37° C., 100 μl of the incubated mixture was added to 2 ml of HEPES buffer and the fluorescence intensity was measured using a fluorescence spectrophotometer at λex=380 nm and λem=460 nm.
In the experiments, a crude extract with enzymatic activity, before subjecting to anion-exchange chromatography, was used.

The target of data set [2] is T2, factor IX-activating protein (erythrocyte membrane extract) (Homo sapiens, UniProt P08246).
T2 construct: 1-219; from tissue; host or cells: erythrocyte membranes (surfactant extract / chromatography fractions)
T2 sequence (P08246 30-248): T1 sequence (P08246 30-248)
The data set is described as follows: Activation of factor IX by the erythrocyte membrane extract, examined by SDS-PAGE. The conditions noted are these: inhibitor added to solution containing the extract. The format is biochemical.
Protocol: 25 μg of pure factor IX (Enzyme Res. Lab.) was dissolved in 50 μl of HEPES buffer, and was mixed with washed erythrocytes (hematocrit: about 40%). 10 μl of 26 mM CaCl2 was added to the suspension, and the mixture was incubated at 37° C. for 30 minutes, and then 30 μl of 0.1 M EDTA was added to the suspension to stop the reaction. The suspension was centrifuged to completely remove erythrocytes, and the supernatant was subjected to SDS-PAGE and Western blot analysis to examine whether the coagulation factor was activated or not. 7.5 to 15% gradient gel was used, and electrophoresis was performed at a constant current of 20 mA in the presence of 0.1% SDS. Protein bands were stained for 3 hours with a 50% ethanol (v/v)/7% acetic acid solution containing 0.25% (w/v) Coomassie brilliant blue R-250 (CBB). When activated factor IX was detected by SDS-PAGE, immunostaining was performed to confirm that the resulting band was of activated coagulation factor IX. In the immunostaining procedures, the gel subjected to electrophoresis was buffered using Towbin buffer (25 mM Tris-HCl (pH 8.3), 192 mM glycin, 20% (v/v) methanol, 0.1% SDS) for 15 minutes, followed by transferring to a polyvinylidene difluoride (PVDF) membrane under conditions of 15V and 150 mA. […]

The mark [3] stands for this setting: material concentration 1 mM, 30 min at 37° C., control without material = 100.0.

“And” between values parts separate entries of the source, which are not always exact repeats. Equal entries are not always repeated. Where two headings read alike, the source gives them in different places.

Regarding `[Cl-].[Cl-].[Mg+2]` [MgCl2], the “Relative activity of the enzyme (%)” value in data set [1] (setting [3]) came to 100.5%.
The same measure, in the same setting: the figure for `O=S(=O)(F)Cc1ccccc1` [PMSF, reference compound] is 19.2%.
Same read-out and setting: the figure for `c1cnc2c(c1)ccc1cccnc12` [Phenanthroline, reference compound] is 28.8%.
On the same count and under the same terms, the figure for `CC(=O)N[C@@H](CC(C)C)C(=O)N[C@@H](CC(C)C)C(=O)N[C@H](C=O)CCCNC(=N)N` [Leupeptin, reference compound] is 78.5%.
Consider `[Cl-].[Na+]` [NaCl], for which the “Relative activity of the enzyme (%)” value in data set [1] was 95.5% and 84.3%.
Turning to `[Ca+2].[Cl-].[Cl-]` [CaCl2], the “Relative activity of the enzyme (%)” value in data set [1] (setting [3]) is recorded as 156.4%.
Regarding `O=C(O)CN(CCN(CC(=O)O)CC(=O)O)CC(=O)O` [EDTA, reference compound], the “Relative activity of the enzyme (%)” value in data set [1] (setting [3]) came out at 74.5%; in data set [1] (material concentration 10 mM, 30 min at 37° C., control without material = 100.0) it was 27.0%.

B1: soybean trypsin inhibitor (protein)
chain: DFVLDNEGNPLENGGTYYILSDITAFGGIRAAPTGNERCPLTVVQSRNELDKGIGTIISSPYRIRFIAEGHPLSLKFDSFAVIMLCVGIPTEWSVVEDLPEGPAVKIGENKDAMDGWFRLERVSDDEFNNYKLVFCPQQAEDDKCGDIGISIDHDDGTRRLVVSKNKPLVVQFQKLDKESL
Consider B1, for which the “activation of factor IX by the extract” value in data set [2] is “inhibited”. Further, the “Relative activity of the enzyme (%)” value in data set [1] (material concentration 1%, 30 min at 37° C., control without material = 100.0) was 65.1%.
